Structures can show the parent of a compound that is named as a salt. Where two headings read alike, the source gives them in different places.
Columns and labels:
Assay in all cases: AK assay 384-well format, Prestwick library screening
E. faecium = type: cell-based, Enterococcus faecium; settings: 50 μM final drug concentration; for fold induction at 50 µM: Enterococcus faecium, 3 h
[1] = tested on: S. aureus strain USA300-0114; type: cell-based, Staphylococcus aureus; settings: 50 μM final drug concentration; for fold induction at 50 µM: Staphylococcus aureus, USA300, 3 h
K. pneumoniae = type: cell-based, Klebsiella pneumoniae; settings: 50 μM final drug concentration; for fold induction at 50 µM: Klebsiella pneumoniae, 3 h
[2] = tested on: A. baumannii strain 98-37-09; type: cell-based, Acinetobacter baumannii; settings: 50 μM final drug concentration; for fold induction at 50 µM: Acinetobacter baumannii, 983709, 3 h
P. aeruginosa = type: cell-based, Pseudomonas aeruginosa; settings: 50 μM final drug concentration; for fold induction at 50 µM: Pseudomonas aeruginosa, 3 h
E. cloacae = type: cell-based, Enterobacter cloacae; settings: 50 μM final drug concentration; for fold induction at 50 µM: Enterobacter cloacae, 3 h
E. coli = type: cell-based, Escherichia coli; settings: 50 μM final drug concentration; for fold induction at 50 µM: Escherichia coli, 3 h
[3] = planktonic E. faecium, positive cutoff 3-fold increase, read-out: AK-based Prestwick library screening result, E. faecium (fold increase in extracellular AK activity)
[4] = planktonic S. aureus, positive cutoff 3-fold increase, read-out: AK-based Prestwick library screening result, S. aureus (fold increase in extracellular AK activity)
[5] = planktonic K. pneumoniae, positive cutoff 3-fold increase, read-out: AK-based Prestwick library screening result, K. pneumoniae (fold increase in extracellular AK activity)
[6] = planktonic A. baumannii, positive cutoff 3-fold increase, read-out: AK-based Prestwick library screening result, A. baumannii (fold increase in extracellular AK activity)
[7] = planktonic P. aeruginosa, positive cutoff 3-fold increase, read-out: AK-based Prestwick library screening result, P. aeruginosa (fold increase in extracellular AK activity)
[8] = planktonic E. cloacae, positive cutoff 3-fold increase, read-out: AK-based Prestwick library screening result, E. cloacae (fold increase in extracellular AK activity)
[9] = planktonic E. coli, positive cutoff 3-fold increase, read-out: AK-based Prestwick library screening result, E. coli (fold increase in extracellular AK activity)
[10] = planktonic, […], read-out: AK-based Prestwick Library Screening Results, E. faecium (fold increase in extracellular AK activity)
[11] = planktonic, […], read-out: AK-based Prestwick Library Screening Results, S. aureus (fold increase in extracellular AK activity)
[12] = planktonic, […], read-out: AK-based Prestwick Library Screening Results, K. pneumoniae (fold increase in extracellular AK activity)
[13] = planktonic, […], read-out: AK-based Prestwick Library Screening Results, A. baumannii (fold increase in extracellular AK activity)
[14] = planktonic, […], read-out: AK-based Prestwick Library Screening Results, P. aeruginosa (fold increase in extracellular AK activity)
[15] = planktonic, […], read-out: AK-based Prestwick Library Screening Results, E. cloacae (fold increase in extracellular AK activity)
[16] = planktonic, […], read-out: AK-based Prestwick Library Screening Results, E. coli (fold increase in extracellular AK activity)
[17] = cutoff for positive-scoring molecules 3-fold increase

## CCNCC(O)c1cccc(O)c1 (stereo not drawn) [Etilefrine hydrochloride]
E. faecium; [3]
  fold induction at 50 µM: 1
[1]; [4]
  fold induction at 50 µM: 1.1
K. pneumoniae; [5]
  fold induction at 50 µM: 0.8
[2]; [6]
  fold induction at 50 µM: 1.4
P. aeruginosa; [7]
  fold induction at 50 µM: 1.1
E. cloacae; [8]
  fold induction at 50 µM: 1.5
E. coli; [9]
  fold induction at 50 µM: 1

## C[C@H]1O[C@@H](O[C@H]2[C@@H](O)C[C@H](O[C@H]3[C@@H](O)C[C@H](O[C@H]4CC[C@@]5(C)[C@H](CC[C@@H]6[C@@H]5C[C@@H](O)[C@]5(C)[C@@H](C7=CC(=O)OC7)CC[C@]65O)C4)O[C@@H]3C)O[C@@H]2C)C[C@H](O)[C@@H]1O [Digoxin]
E. faecium; planktonic E. faecium, […], read-out: AK-based Prestwick Library Screening Results, E. faecium (increase in extracellular AK activity)
  fold induction at 50 µM: 0.9
[1]; planktonic S. aureus, […], read-out: AK-based Prestwick Library Screening Results, S. aureus (increase in extracellular AK activity)
  fold induction at 50 µM: 0.8
K. pneumoniae; planktonic K. pneumoniae, […], read-out: AK-based Prestwick Library Screening Results, K. pneumoniae (increase in extracellular AK activity)
  fold induction at 50 µM: 0.7
[2]; planktonic A. baumannii, […], read-out: AK-based Prestwick Library Screening Results, A. baumannii (increase in extracellular AK activity)
  fold induction at 50 µM: 0.9
P. aeruginosa; planktonic P. aeruginosa, […], read-out: AK-based Prestwick Library Screening Results, P. aeruginosa (increase in extracellular AK activity)
  fold induction at 50 µM: 0.8
E. cloacae; planktonic E. cloacae, […], read-out: AK-based Prestwick Library Screening Results, E. cloacae (increase in extracellular AK activity)
  fold induction at 50 µM: 1.2
E. coli; planktonic E. coli, […], read-out: AK-based Prestwick Library Screening Results, E. coli (increase in extracellular AK activity)
  fold induction at 50 µM: 0.8

## C=C[C@]12CN(C)[C@@H]3[C@H]4CO[C@H](C[C@H]41)[C@]1(C(=O)Nc4ccccc41)[C@@H]32 [Gelsemine]
E. faecium; [10]
  fold induction at 50 µM: 0.9
[1]; [11]
  fold induction at 50 µM: 0.7
K. pneumoniae; [12]
  fold induction at 50 µM: 0.7
[2]; [13]
  fold induction at 50 µM: 0.7
P. aeruginosa; [14]
  fold induction at 50 µM: 0.9
E. cloacae; [15]
  fold induction at 50 µM: 0.9
E. coli; [16]
  fold induction at 50 µM: 0.9

## Tyloxapol
E. faecium; [17]
  AK-based Prestwick Library Screening Results, E. faecium (fold increase in extracellular AK activity): 1.0
[1]; [17]
  AK-based Prestwick Library Screening Results, S. aureus (fold increase in extracellular AK activity): 1.4
K. pneumoniae; [17]
  AK-based Prestwick Library Screening Results, K. pneumoniae (fold increase in extracellular AK activity): 1.5
[2]; [17]
  AK-based Prestwick Library Screening Results, A. baumannii (fold increase in extracellular AK activity): 1.3
P. aeruginosa; [17]
  AK-based Prestwick Library Screening Results, P. aeruginosa (fold increase in extracellular AK activity): 1.2
E. cloacae; [17]
  AK-based Prestwick Library Screening Results, E. cloacae (fold increase in extracellular AK activity): 1.2
E. coli; […]
  AK-based Prestwick Library Screening Results, E. coli (fold increase in extracellular AK activity): 1.4

## O=C1CCc2cc(OCCCCc3nnnn3C3CCCCC3)ccc2N1 [Cilostazol]
E. faecium; planktonic E. faecium, cutoff for positive-scoring molecules 3-fold increase, read-out: AK-based Prestwick Library Screening Results, E. faecium (increase in extracellular AK activity)
  fold induction at 50 µM: 0.9
[1]; planktonic S. aureus, cutoff for positive-scoring molecules 3-fold increase, read-out: AK-based Prestwick Library Screening Results, S. aureus (increase in extracellular AK activity)
  fold induction at 50 µM: 0.8
K. pneumoniae; planktonic K. pneumoniae, cutoff for positive-scoring molecules 3-fold increase, read-out: AK-based Prestwick Library Screening Results, K. pneumoniae (increase in extracellular AK activity)
  fold induction at 50 µM: 0.7
[2]; planktonic A. baumannii, cutoff for positive-scoring molecules 3-fold increase, read-out: AK-based Prestwick Library Screening Results, A. baumannii (increase in extracellular AK activity)
  fold induction at 50 µM: 0.9
P. aeruginosa; planktonic P. aeruginosa, cutoff for positive-scoring molecules 3-fold increase, read-out: AK-based Prestwick Library Screening Results, P. aeruginosa (increase in extracellular AK activity)
  fold induction at 50 µM: 0.9
E. cloacae; planktonic E. cloacae, cutoff for positive-scoring molecules 3-fold increase, read-out: AK-based Prestwick Library Screening Results, E. cloacae (increase in extracellular AK activity)
  fold induction at 50 µM: 0.9
E. coli; planktonic E. coli, cutoff for positive-scoring molecules 3-fold increase, read-out: AK-based Prestwick Library Screening Results, E. coli (increase in extracellular AK activity)
  fold induction at 50 µM: 0.9

## Cn1c(=O)c2[nH]cnc2n(C)c1=O [Theophylline monohydrate]
E. faecium; […], read-out: AK-based Prestwick Library Screening Results, E. faecium (fold increase in extracellular AK activity)
  fold induction at 50 µM: 1
[1]; […], read-out: AK-based Prestwick Library Screening Results, S. aureus (fold increase in extracellular AK activity)
  fold induction at 50 µM: 1.3
K. pneumoniae; […], read-out: AK-based Prestwick Library Screening Results, K. pneumoniae (fold increase in extracellular AK activity)
  fold induction at 50 µM: 1.1
[2]; […], read-out: AK-based Prestwick Library Screening Results, A. baumannii (fold increase in extracellular AK activity)
  fold induction at 50 µM: 1.2
P. aeruginosa; […], read-out: AK-based Prestwick Library Screening Results, P. aeruginosa (fold increase in extracellular AK activity)
  fold induction at 50 µM: 1.2
E. cloacae; […], read-out: AK-based Prestwick Library Screening Results, E. cloacae (fold increase in extracellular AK activity)
  fold induction at 50 µM: 1.3
E. coli; […], read-out: AK-based Prestwick Library Screening Results, E. coli (fold increase in extracellular AK activity)
  fold induction at 50 µM: 1.2

## O=C1C[C@@H](c2ccc(O)cc2)Oc2cc(O)cc(O)c21 [Naringenine]
E. faecium; planktonic, cutoff for positive 3-fold increase, read-out: AK-based Prestwick Library Screening Results, E. faecium (fold increase in extracellular AK activity)
  fold induction at 50 µM: 0.9
[1]; planktonic, cutoff for positive 3-fold increase, read-out: AK-based Prestwick Library Screening Results, S. aureus (fold increase in extracellular AK activity)
  fold induction at 50 µM: 0.5
K. pneumoniae; planktonic, cutoff for positive 3-fold increase, read-out: AK-based Prestwick Library Screening Results, K. pneumoniae (fold increase in extracellular AK activity)
  fold induction at 50 µM: 0.9
[2]; planktonic, cutoff for positive 3-fold increase, read-out: AK-based Prestwick Library Screening Results, A. baumannii (fold increase in extracellular AK activity)
  fold induction at 50 µM: 1.2
P. aeruginosa; planktonic, cutoff for positive 3-fold increase, read-out: AK-based Prestwick Library Screening Results, P. aeruginosa (fold increase in extracellular AK activity)
  fold induction at 50 µM: 1
E. cloacae; planktonic, cutoff for positive 3-fold increase, read-out: AK-based Prestwick Library Screening Results, E. cloacae (fold increase in extracellular AK activity)
  fold induction at 50 µM: 1.5
E. coli; planktonic, cutoff for positive 3-fold increase, read-out: AK-based Prestwick Library Screening Results, E. coli (fold increase in extracellular AK activity)
  fold induction at 50 µM: 1.1

## Clc1cnccn1 [Compound 2-Chloropyrazine, 2-Chloropyrazine]
E. faecium; [3]
  fold induction at 50 µM: 1.1
[1]; [4]
  fold induction at 50 µM: 1.1
K. pneumoniae; [5]
  fold induction at 50 µM: 0.9
[2]; [6]
  fold induction at 50 µM: 1.2
P. aeruginosa; [7]
  fold induction at 50 µM: 1
E. cloacae; [8]
  fold induction at 50 µM: 1.4
E. coli; [9]
  fold induction at 50 µM: 1

## c1cncc([C@@H]2CCCCN2)c1 [Anabasine]
E. faecium; [10]
  fold induction at 50 µM: 0.9
[1]; [11]
  fold induction at 50 µM: 0.6
K. pneumoniae; [12]
  fold induction at 50 µM: 0.8
[2]; [13]
  fold induction at 50 µM: 0.8
P. aeruginosa; [14]
  fold induction at 50 µM: 0.9
E. cloacae; [15]
  fold induction at 50 µM: 1
E. coli; [16]
  fold induction at 50 µM: 1

Source: US10004701B2, “Methods and compositions for treating infection” (UNIVERSITY OF ROCHESTER, priority 2012, dated 2018)
